From PMC11079024, “Identification of a family of species-selective complex I inhibitors as potential anthelmintics” (Nature Communications, 2024)
“And” between values parts separate entries of the source, which are not always exact repeats. Equal values may be shown once. Read-outs that look alike come from different tables or passages of the source.

Legend:
[1] = tested on: ben-1 mutant (ECA882) C. elegans; assay: microbe, parasite or virus in culture; conditions: for LC50: Caenorhabditis elegans; for C. elegans L1 relative development & viability: ECA882 deletion (ben-1)
Outline: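 L1 larvae (~2 worms/μL in M9) in liquid NGM with 2-fold concentrated E. coli HB101, compound at 1% DMSO, 6 days at 20 °C shaking 165 rpm. Well images scored as summed worm-associated pixels, normalized to DMSO controls; relative viability averaged over at least three biological replicates.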

[2] = target: B. taurus (heart) complex I (Bos taurus, UniProt P03887+P17694+P42026); assay: biochemical; format: biochemical; conditions: for IC50: read-out: B. taurus Complex I IC50
B. taurus (heart) complex I, sequence (P03887 whole entry): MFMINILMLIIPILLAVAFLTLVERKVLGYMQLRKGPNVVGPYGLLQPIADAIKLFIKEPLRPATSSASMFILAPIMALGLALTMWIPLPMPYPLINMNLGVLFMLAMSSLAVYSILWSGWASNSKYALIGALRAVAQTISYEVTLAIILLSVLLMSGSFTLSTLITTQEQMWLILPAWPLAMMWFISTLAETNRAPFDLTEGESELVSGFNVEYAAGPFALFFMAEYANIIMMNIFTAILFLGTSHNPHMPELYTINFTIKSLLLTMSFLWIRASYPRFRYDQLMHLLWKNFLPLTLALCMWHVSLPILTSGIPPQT
B. taurus (heart) complex I, sequence (P17694 34-463): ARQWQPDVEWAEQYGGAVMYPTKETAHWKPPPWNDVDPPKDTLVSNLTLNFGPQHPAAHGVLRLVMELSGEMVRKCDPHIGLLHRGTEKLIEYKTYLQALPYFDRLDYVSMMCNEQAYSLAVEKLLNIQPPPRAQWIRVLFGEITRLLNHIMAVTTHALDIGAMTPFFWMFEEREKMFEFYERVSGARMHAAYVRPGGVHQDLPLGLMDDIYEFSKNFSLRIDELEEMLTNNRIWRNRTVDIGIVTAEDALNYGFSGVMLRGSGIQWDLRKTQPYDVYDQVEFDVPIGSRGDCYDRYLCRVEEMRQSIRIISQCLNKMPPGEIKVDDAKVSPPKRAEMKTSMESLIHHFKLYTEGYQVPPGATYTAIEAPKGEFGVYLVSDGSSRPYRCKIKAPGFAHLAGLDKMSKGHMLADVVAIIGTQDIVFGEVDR
B. taurus (heart) complex I, sequence (P42026 38-216): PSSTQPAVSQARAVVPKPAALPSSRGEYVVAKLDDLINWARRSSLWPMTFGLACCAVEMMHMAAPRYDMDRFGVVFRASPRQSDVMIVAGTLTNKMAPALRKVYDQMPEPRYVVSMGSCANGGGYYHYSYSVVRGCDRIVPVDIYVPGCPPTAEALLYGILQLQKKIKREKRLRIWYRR
Outline: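 Complex I activity followed as DCIP reduction (600 nm, 30 s reads, 15 min) with 80 μM NADH and 60 μM decylubiquinone in 25 mM KPi pH 7.5 containing 2 μM antimycin A and 2 mM KCN. Freeze-thawed mouse or bovine heart mitochondria at 0.2 mg/mL; initial-rate percent of solvent control, single-point 100 μM or dose-response.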

[3] = tested on: L1 wild-type C. elegans; conditions: […]; score 0-1 relative to DMSO, values >1 set to 1
[4] = B. taurus (heart) mitochondria, mean of replicates, read-out: percent (%) in vitro complex I activity relative to solvent control
[5] = B. taurus (heart) mitochondria, single replicate, read-out: percent (%) in vitro complex I activity relative to solvent control
[6] = B. taurus (heart) mitochondria, Mean of replicates, read-out: in vitro complex I activity relative to solvent control
[7] = B. taurus (heart) mitochondria, single replicate, read-out: in vitro complex I activity relative to solvent control

Which results are given for `CC(C)Cc1ccc(C(C)c2nc3ccccc3n2C)cc1` (stereo not drawn) [NPD8790]?
LC50 ([1]; read-out: C. elegans (ben-1) Development & Viability Assay LC50): > 1000 µM; remaining activity at 0.125 µM ([2]; 0.125 µM, B. taurus (heart) mitochondria, mean of replicates, read-out: percent (%) in vitro complex I activity relative to solvent control): 101%; remaining activity at 0.313 µM [2, 4]: 112%; remaining activity at 0.313 µM [2, 5]: 118%; remaining activity at 0.625 µM [2, 4]: 103%; remaining activity at 0.625 µM [2, 5]: 96.1%; remaining activity at 1.5 µM [2, 4]: 107%; remaining activity at 3 µM [2, 4]: 104%; remaining activity at 15 µM [2, 4]: 79.4%; remaining activity at 37.5 µM [2, 4]: 38%; remaining activity at 37.5 µM [2, 5]: 38.8%; remaining activity at 75 µM [2, 4]: 13.6%; remaining activity at 0.06 µM ([2]; B. taurus (heart) mitochondria, 0.06 µM, Mean of replicates, read-out: in vitro complex I activity relative to solvent control): 103%; remaining activity at 0.13 µM ([2]; B. taurus (heart) mitochondria, 0.13 µM, Mean of replicates, read-out: in vitro complex I activity relative to solvent control): 101%; remaining activity at 0.313 µM [2, 6]: 112%; remaining activity at 0.313 µM [2, 7]: 118%; remaining activity at 0.625 µM [2, 6]: 103%; remaining activity at 0.625 µM [2, 7]: 96.1%; remaining activity at 1.5 µM [2, 6]: 107%; remaining activity at 3 µM [2, 6]: 104%; remaining activity at 15 µM [2, 6]: 79.4%; remaining activity at 37.5 µM [2, 6]: 38%; remaining activity at 37.5 µM [2, 7]: 38.8%; remaining activity at 75 µM [2, 6]: 13.6%; IC50 ([2]; B. taurus heart mitochondria): 27.2 µM; activity at 0.0001 µM ([2]; B. taurus, dose 0.0001 µM, Mean of replicates, read-out: Complex I activity, dose-response data): 104%; Complex I activity, dose-response data ([2]; B. taurus, dose 0.0001 µM, individual replicates (Rep)): 106.495 and 102.513 and 108.647; activity at 0.0001 µM ([2]; B. taurus, dose 0.0001 µM, individual replicates (Rep), read-out: Complex I activity, dose-response data): 97.6%; activity at 0.0005 µM ([2]; B. taurus, dose 0.0005 µM, Mean of replicates, read-out: Complex I activity, dose-response data): 101%; Complex I activity, dose-response data ([2]; B. taurus, dose 0.0005 µM, individual replicates (Rep)): 104.650 and 93.657 and 105.597; activity at 0.0005 µM ([2]; B. taurus, dose 0.0005 µM, individual replicates (Rep), read-out: Complex I activity, dose-response data): 99.4%; activity at 0.001 µM ([2]; B. taurus, dose 0.001 µM, Mean of replicates, read-out: Complex I activity, dose-response data): 105%; Complex I activity, dose-response data ([2]; B. taurus, dose 0.001 µM, individual replicates (Rep)): 106.670 and 104.354 and 107.534; activity at 0.001 µM ([2]; B. taurus, dose 0.001 µM, individual replicates (Rep), read-out: Complex I activity, dose-response data): 103%; activity at 0.0025 µM ([2]; B. taurus, dose 0.0025 µM, Mean of replicates, read-out: Complex I activity, dose-response data): 104%; Complex I activity, dose-response data ([2]; B. taurus, dose 0.0025 µM, individual replicates (Rep)): 99.492 and 117.130 and 91.896 and 108.464; activity at 0.005 µM ([2]; B. taurus, dose 0.005 µM, Mean of replicates, read-out: Complex I activity, dose-response data): 114%; Complex I activity, dose-response data ([2]; B. taurus, dose 0.005 µM, individual replicates (Rep)): 112.174 and 127.690 and 101.653 and 112.765; activity at 0.013 µM ([2]; B. taurus, dose 0.013 µM, Mean of replicates, read-out: Complex I activity, dose-response data): 99.8%; Complex I activity, dose-response data ([2]; B. taurus, dose 0.013 µM, individual replicates (Rep)): 108.528 and 89.880 and 103.599; activity at 0.013 µM ([2]; B. taurus, dose 0.013 µM, individual replicates (Rep), read-out: Complex I activity, dose-response data): 97.2%; activity at 0.025 µM ([2]; B. taurus, dose 0.025 µM, Mean of replicates, read-out: Complex I activity, dose-response data): 101%; Complex I activity, dose-response data ([2]; B. taurus, dose 0.025 µM, individual replicates (Rep)): 88.122 and 92.313 and 109.456; activity at 0.063 µM ([2]; B. taurus, dose 0.063 µM, Mean of replicates, read-out: Complex I activity, dose-response data): 103%; Complex I activity, dose-response data ([2]; B. taurus, dose 0.063 µM, individual replicates (Rep)): 101.538 and 112.181 and 91.251 and 105.094; activity at 0.125 µM ([2]; B. taurus, dose 0.125 µM, Mean of replicates, read-out: Complex I activity, dose-response data): 101%; Complex I activity, dose-response data ([2]; B. taurus, dose 0.125 µM, individual replicates (Rep)): 111.398 and 110.709 and 87.488 and 92.420; activity at 0.313 µM ([2]; B. taurus, dose 0.313 µM, Mean of replicates, read-out: Complex I activity, dose-response data): 112%; Complex I activity, dose-response data ([2]; B. taurus, dose 0.313 µM, individual replicates (Rep)): 118.464 and 105.228 and 106.985; activity at 0.313 µM ([2]; B. taurus, dose 0.313 µM, individual replicates (Rep), read-out: Complex I activity, dose-response data): 118%; activity at 0.625 µM ([2]; B. taurus, dose 0.625 µM, Mean of replicates, read-out: Complex I activity, dose-response data): 103%; Complex I activity, dose-response data ([2]; B. taurus, dose 0.625 µM, individual replicates (Rep)): 106.273 and 97.568 and 112.424; activity at 0.625 µM ([2]; B. taurus, dose 0.625 µM, individual replicates (Rep), read-out: Complex I activity, dose-response data): 96.1%; activity at 1.5 µM ([2]; B. taurus, dose 1.5 µM, Mean of replicates, read-out: Complex I activity, dose-response data): 107%; Complex I activity, dose-response data ([2]; B. taurus, dose 1.5 µM, individual replicates (Rep)): 108.615 and 114.555 and 94.027 and 109.488; activity at 3 µM ([2]; B. taurus, dose 3 µM, Mean of replicates, read-out: Complex I activity, dose-response data): 104%; Complex I activity, dose-response data ([2]; B. taurus, dose 3 µM, individual replicates (Rep)): 105.743 and 114.475 and 92.946 and 103.733; activity at 15 µM ([2]; B. taurus, dose 15 µM, Mean of replicates, read-out: Complex I activity, dose-response data): 79.4%; Complex I activity, dose-response data ([2]; B. taurus, dose 15 µM, individual replicates (Rep)): 82.876 and 90.607 and 69.676 and 74.384; activity at 37.5 µM ([2]; B. taurus, dose 37.5 µM, Mean of replicates, read-out: Complex I activity, dose-response data): 38%; Complex I activity, dose-response data ([2]; B. taurus, dose 37.5 µM, individual replicates (Rep)): 49.756 and 32.716 and 30.663; activity at 37.5 µM ([2]; B. taurus, dose 37.5 µM, individual replicates (Rep), read-out: Complex I activity, dose-response data): 38.8%; activity at 75 µM ([2]; B. taurus, dose 75 µM, Mean of replicates, read-out: Complex I activity, dose-response data): 13.6%; Complex I activity, dose-response data ([2]; B. taurus, dose 75 µM, individual replicates (Rep)): 6.165 and 16.790 and 16.865 and 14.475; IC50 ([2]; heart mitochondria): 27.2 µM; Log IC50 B. taurus complex I ([2]; log10 of IC50 in µM, B. taurus mitochondria): 1.43 µM

Which results are given for `c1ccc2[nH]c(-c3cscn3)nc2c1` [Thiabendazole]?
LC50 ([1]; read-out: C. elegans ben-1 LC50): 375 µM; LC50 ([1]; read-out: C. elegans ben-1 log10 LC50 (converted)): 375 µM; C. elegans L1 relative development & viability ([1]; 1 µM, […]): 0.926; C. elegans L1 relative development & viability ([1]; 2 µM, […]): 0.954; C. elegans L1 relative development & viability ([1]; 3.9 µM, […]): 0.969; C. elegans L1 relative development & viability ([1]; 15.6 µM, score 0-1 relative to DMSO, values >1 set to 1): 0.996; C. elegans L1 relative development & viability ([1]; 31.3 µM, score 0-1 relative to DMSO, values >1 set to 1): 1.000; C. elegans L1 relative development & viability ([1]; 62.5 µM, score 0-1 relative to DMSO, values >1 set to 1): 1.000; C. elegans L1 relative development & viability ([1]; 125 µM, score 0-1 relative to DMSO, values >1 set to 1): 1.000; C. elegans L1 relative development & viability ([1]; 250 µM, […]): 0.967; C. elegans L1 relative development & viability ([1]; 500 µM, […]): 0.155; C. elegans L1 relative motility, 3-hour post 200 µM KCN dilution [3]: 1.000
